# Assay results reported in patent publication US8435980B2 (AbbVie Inc., priority 2009, dated 2013).
# Biological target: T1, Cdc7 (BEV coexpressed huCDC7/DBF4) (Homo sapiens, UniProt O00311)
# T1 construct: made in house; host or cells: BEV (baculovirus expression vector) co-expression; insect cells are implied but no cell line is named
# Test: Cdc7 enzyme inhibition assay ([33P]ATP, biotinylated peptide substrate, FlashPlate)
# Assay type: biochemical
# Conditions: Table 3; enzyme inhibition data (Ki)
# Method: Cdc7 (BEV coexpressed huCDC7/DBF4) is prepared internally. Cdc7 assays are conducted as follows with final concentrations as listed. […] Reactions are quenched after 1 hr by the addition of 90 μL stop buffer (50 mM EDTA, 2M NaCl). […] (Ki) for exemplary compounds.
# T1 sequence (O00311 whole entry): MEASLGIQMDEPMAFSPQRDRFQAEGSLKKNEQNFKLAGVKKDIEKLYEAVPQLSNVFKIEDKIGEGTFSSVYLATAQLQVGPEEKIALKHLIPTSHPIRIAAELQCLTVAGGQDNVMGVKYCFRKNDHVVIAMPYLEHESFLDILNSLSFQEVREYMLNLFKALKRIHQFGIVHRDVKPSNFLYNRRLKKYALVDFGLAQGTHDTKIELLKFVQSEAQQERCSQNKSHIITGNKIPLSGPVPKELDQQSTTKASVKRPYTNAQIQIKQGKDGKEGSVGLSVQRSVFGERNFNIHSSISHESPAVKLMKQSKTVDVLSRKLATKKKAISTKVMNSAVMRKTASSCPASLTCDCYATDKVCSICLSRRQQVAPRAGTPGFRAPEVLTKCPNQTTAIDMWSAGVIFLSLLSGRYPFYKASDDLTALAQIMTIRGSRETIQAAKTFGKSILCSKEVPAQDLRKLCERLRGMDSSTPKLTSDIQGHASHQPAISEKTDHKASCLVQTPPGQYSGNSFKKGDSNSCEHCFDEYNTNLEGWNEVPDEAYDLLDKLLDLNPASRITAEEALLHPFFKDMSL
# T1 sequence (Q9UBU7 whole entry partner): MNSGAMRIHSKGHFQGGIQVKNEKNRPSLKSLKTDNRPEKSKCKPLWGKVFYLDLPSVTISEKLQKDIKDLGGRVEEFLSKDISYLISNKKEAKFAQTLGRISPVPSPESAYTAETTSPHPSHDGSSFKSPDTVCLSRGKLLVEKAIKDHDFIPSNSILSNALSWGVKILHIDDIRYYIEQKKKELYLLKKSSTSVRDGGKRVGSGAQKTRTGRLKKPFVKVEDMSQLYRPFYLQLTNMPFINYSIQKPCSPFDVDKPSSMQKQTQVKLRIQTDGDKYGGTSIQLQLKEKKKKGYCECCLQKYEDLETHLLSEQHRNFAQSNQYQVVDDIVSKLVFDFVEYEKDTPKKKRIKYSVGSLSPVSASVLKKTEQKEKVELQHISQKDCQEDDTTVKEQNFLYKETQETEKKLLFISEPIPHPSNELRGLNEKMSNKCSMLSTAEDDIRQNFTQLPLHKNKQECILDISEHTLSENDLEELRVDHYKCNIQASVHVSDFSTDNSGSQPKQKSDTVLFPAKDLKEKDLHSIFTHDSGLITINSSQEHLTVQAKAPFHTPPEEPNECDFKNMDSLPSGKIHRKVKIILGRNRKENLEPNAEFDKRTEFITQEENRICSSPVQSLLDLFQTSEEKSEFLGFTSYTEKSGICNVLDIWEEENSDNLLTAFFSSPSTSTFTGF
row,Ki,Structure (SMILES)
1,< 0.01 µM,"O=C(Nc1ccccc1)N[C@H]1CC[C@H](Nc2nc(Cl)cc(-c3c[nH]c4ncccc34)n2)CC1 [Example 281, 1-(trans-4-{[4-chloro-6-(1H-pyrrolo[2,3-b]pyridin-3-yl)pyrimidin-2-yl]amino}cyclohexyl)-3-phenylurea]"
2,< 0.01 µM,"O=S(=O)(N[C@H]1CC[C@H](Nc2nc(Cl)cc(-c3c[nH]c4ncccc34)n2)CC1)C1CC1 [Example 282, N-(trans-4-{[4-chloro-6-(1H-pyrrolo[2,3-b]pyridin-3-yl)pyrimidin-2-yl]amino}cyclohexyl)cyclopropanesulfonamide]"
3,< 0.01 µM,"Cc1noc(C)c1S(=O)(=O)NC1CCC(Nc2cc(-c3c[nH]c4ncccc34)cc(Cl)n2)CC1 (stereo not shown) [Example 283, N-(4-{[6-chloro-4-(1H-pyrrolo[2,3-b]pyridin-3-yl)pyridin-2-yl]amino}cyclohexyl)-3,5-dimethyl-1,2-oxazole-4-sulfonamide]"
4,< 0.01 µM,"COC[C@H](Cc1ccccc1)Nc1cc(-c2c[nH]c3ncccc23)cc(Cl)n1 [Example 284, 6-chloro-N-[(2S)-1-methoxy-3-phenylpropan-2-yl]-4-(1H-pyrrolo[2,3-b]pyridin-3-yl)pyridin-2-amine]"
5,0.01 to 0.1 µM,"Clc1cc(-c2c[nH]c3ncccc23)cc(NC2CCCC(NC3CCCC3)C2)n1 (stereo not shown) [Example 285, N-[6-chloro-4-(1H-pyrrolo[2,3-b]pyridin-3-yl)pyridin-2-yl]-N′-cyclopentylcyclohexane-1,3-diamine]"
6,< 0.01 µM,"CCOC(=O)CNC(=O)NC1CCC(Nc2cc(-c3c[nH]c4ncccc34)cc(Cl)n2)CC1 (stereo not shown) [Example 286, ethyl N-[(4-{[6-chloro-4-(1H-pyrrolo[2,3-b]pyridin-3-yl)pyridin-2-yl]amino}cyclohexyl)carbamoyl]glycinate]"
7,< 0.01 µM,"CC(C)NC(=O)NC1CCC(Nc2cc(-c3c[nH]c4ncccc34)cc(Cl)n2)CC1 (stereo not shown) [Example 287, 1-(4-{[6-chloro-4-(1H-pyrrolo[2,3-b]pyridin-3-yl)pyridin-2-yl]amino}cyclohexyl)-3-propan-2-ylurea]"
8,< 0.01 µM,"CC(C)(C)NC(=O)NC1CCC(Nc2cc(-c3c[nH]c4ncccc34)cc(Cl)n2)CC1 (stereo not shown) [Example 288, 1-tert-butyl-3-(4-{[6-chloro-4-(1H-pyrrolo[2,3-b]pyridin-3-yl)pyridin-2-yl]amino}cyclohexyl)urea]"
9,< 0.01 µM,"COCC(=O)NC1CCC(Nc2cc(-c3c[nH]c4ncccc34)cc(Cl)n2)CC1 (stereo not shown) [Example 289, N-(4-{[6-chloro-4-(1H-pyrrolo[2,3-b]pyridin-3-yl)pyridin-2-yl]amino}cyclohexyl)-2-methoxyacetamide]"
10,< 0.01 µM,"Clc1cc(-c2c[nH]c3ncccc23)cc(NC2CCCC(NCc3nccs3)C2)n1 (stereo not shown) [Example 290, N-[6-chloro-4-(1H-pyrrolo[2,3-b]pyridin-3-yl)pyridin-2-yl]-N′-(1,3-thiazol-2-ylmethyl)cyclohexane-1,3-diamine]"
11,< 0.01 µM,"Clc1cc(-c2c[nH]c3ncccc23)cc(NC2CCCC(NCc3cccc(CN4CCCCC4)c3)C2)n1 (stereo not shown) [Example 291, N-[6-chloro-4-(1H-pyrrolo[2,3-b]pyridin-3-yl)pyridin-2-yl]-N′-[3-(piperidin-1-ylmethyl)benzyl]cyclohexane-1,3-diamine]"
12,< 0.01 µM,"CCOCC(=O)NC1CCCC(Nc2cc(-c3c[nH]c4ncccc34)cc(Cl)n2)C1 (stereo not shown) [Example 292, N-(3-{[6-chloro-4-(1H-pyrrolo[2,3-b]pyridin-3-yl)pyridin-2-yl]amino}cyclohexyl)-2-ethoxyacetamide]"
13,< 0.01 µM,"O=C(COc1ccccc1)NC1CCCC(Nc2cc(-c3c[nH]c4ncccc34)cc(Cl)n2)C1 (stereo not shown) [Example 293, N-(3-{[6-chloro-4-(1H-pyrrolo[2,3-b]pyridin-3-yl)pyridin-2-yl]amino}cyclohexyl)-2-phenoxyacetamide]"
14,< 0.01 µM,"O=C(NC1CCCC(Nc2cc(-c3c[nH]c4ncccc34)cc(Cl)n2)C1)c1cnccn1 (stereo not shown) [Example 294, N-(3-{[6-chloro-4-(1H-pyrrolo[2,3-b]pyridin-3-yl)pyridin-2-yl]amino}cyclohexyl)pyrazine-2-carboxamide]"
15,< 0.01 µM,"O=C(NC1CCCC(Nc2cc(-c3c[nH]c4ncccc34)cc(Cl)n2)C1)C1CCN1 (stereo not shown) [Example 295, N-(3-{[6-chloro-4-(1H-pyrrolo[2,3-b]pyridin-3-yl)pyridin-2-yl]amino}cyclohexyl)azetidine-2-carboxamide]"
16,< 0.01 µM,"CC(C)(C)OC(=O)N1CCC1C(=O)NC1CCCC(Nc2cc(-c3c[nH]c4ncccc34)cc(Cl)n2)C1 (stereo not shown) [Example 296, tert-butyl 2-[(3-{[6-chloro-4-(1H-pyrrolo[2,3-b]pyridin-3-yl)pyridin-2-yl]amino}cyclohexyl)carbamoyl]azetidine-1-carboxylate]"
17,< 0.01 µM,"C=CCNC(=O)NC1CCC(Nc2cc(-c3c[nH]c4ncccc34)cc(Cl)n2)CC1 (stereo not shown) [Example 297, 1-(4-{[6-chloro-4-(1H-pyrrolo[2,3-b]pyridin-3-yl)pyridin-2-yl]amino}cyclohexyl)-3-prop-2-en-1-ylurea]"
18,< 0.01 µM,"Cn1cnc(S(=O)(=O)NCC(C)(C)CNc2cc(-c3c[nH]c4ncccc34)cc(Cl)n2)c1 [Example 298, N-(3-{[6-chloro-4-(1H-pyrrolo[2,3-b]pyridin-3-yl)pyridin-2-yl]amino}-2,2-dimethylpropyl)-1-methyl-1H-imidazole-4-sulfonamide]"
19,< 0.01 µM,"O=S(=O)(NC1CCCC(Nc2cc(-c3c[nH]c4ncccc34)cc(Cl)n2)C1)c1ccco1 (stereo not shown) [Example 299, N-(3-{[6-chloro-4-(1H-pyrrolo[2,3-b]pyridin-3-yl)pyridin-2-yl]amino}cyclohexyl)furan-2-sulfonamide]"
20,< 0.01 µM,"O=S(=O)(NC1CCCC(Nc2cc(-c3c[nH]c4ncccc34)cc(Cl)n2)C1)c1cccnc1 (stereo not shown) [Example 300, N-(3-{[6-chloro-4-(1H-pyrrolo[2,3-b]pyridin-3-yl)pyridin-2-yl]amino}cyclohexyl)pyridine-3-sulfonamide]"
21,< 0.01 µM,"CC(C)NC(=O)NC1CCCC(Nc2cc(-c3c[nH]c4ncccc34)cc(Cl)n2)C1 (stereo not shown) [Example 301, 1-(3-{[6-chloro-4-(1H-pyrrolo[2,3-b]pyridin-3-yl)pyridin-2-yl]amino}cyclohexyl)-3-propan-2-ylurea]"
22,< 0.01 µM,"CCOC(=O)CNC(=O)NC1CCCC(Nc2cc(-c3c[nH]c4ncccc34)cc(Cl)n2)C1 (stereo not shown) [Example 302, ethyl N-[(3-{[6-chloro-4-(1H-pyrrolo[2,3-b]pyridin-3-yl)pyridin-2-yl]amino}cyclohexyl)carbamoyl]glycinate]"
23,0.01 to 0.1 µM,"O=C(NCC1CCCCC1)NC1CCCC(Nc2cc(-c3c[nH]c4ncccc34)cc(Cl)n2)C1 (stereo not shown) [Example 303, 1-(3-{[6-chloro-4-(1H-pyrrolo[2,3-b]pyridin-3-yl)pyridin-2-yl]amino}cyclohexyl)-3-(cyclohexylmethyl)urea]"
24,0.01 to 0.1 µM,"CC(=O)c1ccc(S(=O)(=O)NCC(C)(C)CNc2cc(-c3c[nH]c4ncccc34)cc(Cl)n2)cc1 [Example 304, 4-acetyl-N-(3-{[6-chloro-4-(1H-pyrrolo[2,3-b]pyridin-3-yl)pyridin-2-yl]amino}-2,2-dimethylpropyl)benzenesulfonamide]"
25,0.01 to 0.1 µM,"Cc1noc(C)c1S(=O)(=O)NCC(C)(C)CNc1cc(-c2c[nH]c3ncccc23)cc(Cl)n1 [Example 305, N-(3-{[6-chloro-4-(1H-pyrrolo[2,3-b]pyridin-3-yl)pyridin-2-yl]amino}-2,2-dimethylpropyl)-3,5-dimethyl-1,2-oxazole-4-sulfonamide]"
